Assay: Pharmacokinetics of orally administered salmon calcitonin combined with 5-CNAC
Format: in vivo
Description: An oral form of calcitonin would improve patient acceptance and facilitate improved patient compliance by providing a more acceptable, alternative delivery route for peptide therapy. […] Salmon calcitonin appears rapidly in the plasma following oral administration, with median tmax at about 0.25 hr post-dose. Following tmax the plasma concentration fell rapidly. […] Plasma sCT concentrations increased as sCT doses increased. However, with high variability in available data, dose-proportional increase in AUC could not be confirmed.

## CC(C)C[C@H](NC(=O)[C@H](CCCCN)NC(=O)CNC(=O)[C@H](CC(C)C)NC(=O)[C@@H](NC(=O)[C@@H]1CSSC[C@H](N)C(=O)N[C@@H](CO)C(=O)N[C@@H](CC(N)=O)C(=O)N[C@@H](CC(C)C)C(=O)N[C@@H](CO)C(=O)N[C@@H]([C@@H](C)O)C(=O)N1)C(C)C)C(=O)N[C@@H](CO)C(=O)N[C@@H](CCC(N)=O)C(=O)N[C@@H](CCC(=O)O)C(=O)N[C@@H](CC(C)C)C(=O)N[C@@H](Cc1c[nH]cn1)C(=O)N[C@@H](CCCCN)C(=O)N[C@@H](CC(C)C)C(=O)N[C@@H](CCC(N)=O)C(=O)N[C@H](C(=O)N[C@@H](Cc1ccc(O)cc1)C(=O)N1CCC[C@H]1C(=O)N[C@@H](CCCNC(=N)N)C(=O)N[C@H](C(=O)N[C@@H](CC(N)=O)C(=O)N[C@H](C(=O)NCC(=O)N[C@@H](CO)C(=O)NCC(=O)N[C@H](C(=O)N1CCC[C@H]1C(N)=O)[C@@H](C)O)[C@@H](C)O)[C@@H](C)O)[C@@H](C)O [salmon calcitonin]
Administered with food
  effect of food on bioavailability of sCT: markedly reduces
oral
  accumulation (AUC after multiple-dose vs single-dose): No significant accumulation
oral, combination with 5-CNAC, rodents, monkeys and humans
  gastrointestinal (GI) absorption of the sCT: marked increase
plasma, following oral administration, post-dose, read-out: median tmax
  Tmax: ~15 min

— patent US20150283212A1, “ORAL CALCITONIN COMPOSITIONS AND APPLICATIONS THEREOF” (Novartis AG, priority 2007, published 2015)
